# Results: patent US9816074B2, “Methods and compositions for modulating nuclease-mediated genome engineering in hematopoietic stem cells” (Sangamo BioSciences, Inc., priority 2014, dated 2017)
# Read-outs that look alike come from different tables or passages of the source.
# Columns and labels:
# Assay type in all cases: cell-based
# Human mPB CD34+ cells [1] = assay: Flow cytometry of HSPC multipotency markers (CD34, CD133, CD90, CD49f, CD166, CD38, CD45RA); settings: for CD90 expression (FIG. 3A): dmPGE2 10 μM, SR1 1 μM, 17 days, addition 1 day post thawing; for CD49f expression (FIG. 3C) / CD133 expression (FIG. 3B): compared to controls, 17 day culture; for CD34 expression compared to controls (FIG. 3D): for the duration of the experiment (17 days); for CD90 expression (percent of CD90+ cells, FIG. 2A): nicotinamide 2.5 mM, TEPA 5 μM, addition at 1 day post thawing, vs control
# Description: Human mPB CD34+ cells were cultured ex vivo in CC110 media for 3 days with or without VPA, nicotinamide or TEPA. Various cell surface markers are enriched on CD34+ subpopulations that contain true LT-HSCs. Measurement of such cell surface markers can therefore be used as a proxy for the number of LT-HSCs in the culture. In particular, CD90, CD133, CD49f, CD38, and CD166 can be used to assay LT-HSC number (Notta et al. (2011) Science 333(6039):218-21; Chitteti et al. (2014) Blood 124(4):519-29), with the LT-HSCs generally residing in the CD90+CD133+CD49f+CD38-low CD166+ pool. Accordingly, cells were stained using fluorescently-tagged antibodies against the HSPC multipotency markers CD34 (PE-Cy7), CD133 (PE), CD90 (APC), and CD49f (PerCP) and analyzed by flow cytometry.
# Human mPB CD34+ cells were cultured ex vivo in CC110 media for 17 days. Cells were then stained using fluorescently-tagged antibodies against the HSPC multipotency markers CD34 (PE-Cy7), CD133 (PE), CD90 (APC), and CD49f (PerCP) and analyzed by flow cytometry as described above.
# Human mPB-derived cells were cultured as described above in the presence or absence of VPA (1.25 mM) and 5 mM lithium chloride (Li) and cells assayed for primitive cell surface markers as described above.
# CD34+ cells were cultured ex vivo in CC110 media with 100 ng/mL IL-6 for 8 days in the presence or absence of VPA, lithium, nucleases and donors. VPA and Li were added prior to nucleases and/or donors (which can be added in any order). Briefly, CD34+ cells were thawed and cultured for approximately […] before addition of VPA and Li and cultured again (e.g., 1-2 days) before addition of a donor. Nucleases (e.g., ZFN mRNA) were added 0.5 to 1 day later and VPA/Li washed out at the same time. After at least a day, cells were then stained using fluorescently-tagged antibodies against the HSPC multipotency markers CD34 (PE-Cy7), CD133 (PE), CD90 (APC), and CD49f (PerCP) and analyzed by flow cytometry.
# CD34+ cells were cultured ex vivo in CC110 media as described above for approximately 6 days in the presence or absence of VPA, lithium, nucleases and donors. VPA and Li were added after to nucleases and/or donors (which can be added in any order). Briefly, CD34+ cells were thawed and cultured for approximately 2-3 days before addition of a donor. Nucleases (e.g., ZFN mRNA) were added 0.5 to 1 day after transfection with the donor. The donor was a SA-IL2RG partial corrective cDNA transgene at IL2RG intron 1 and the zinc-finger nucleases (ZFN) were SBS #s 44271/44298 delivered by BTX electroporation. VPA/Li was added 1 day after addition of the ZFN mRNA. After approximately 3 days, cells were then stained using fluorescently-tagged antibodies against the HSPC multipotency markers CD34 (PE-Cy7), CD133 (PE), CD90 (APC), and CD49f (PerCP) and analyzed by flow cytometry.
# (§1) Human mPB CD34+ cells were cultured ex vivo in CC110 media with or without 100 ng/mL IL-6 in the presence of VPA (1.25 mM or 2.5 mM) and 5 mM lithium chloride (Li) for 4 (blue lines—added at 4 days post thawing of the cells) or 7 days (red line—added at 1 day post thawing).
# The presence of IL-6 was capable of enhancing the expression of CD49f with extended culture. […] In a further experiment, human mPB CD34+ cells were cultured ex vivo in CC110 media in the presence of VPA (1.25 mM) plus LiCl (5 mM) with or without 100 ng/mL IL-6 for 7 days.
# After 7 days in culture cells were stained using fluorescently-tagged antibodies against the HSPC multipotency marker CD166 (PE) and analyzed by flow cytometry. VPA+Li increased the overall fraction of CD166+ cells.
# Human mPB CD34+ cells were cultured ex vivo in CC110 media with 100 ng/mL IL-6 in the presence or absence of VPA (1.25 mM) plus LiCl (5 mM) for 6 days.
# Human mPB CD34+ cells [2] = assay: Cell density / proliferative capacity in culture; settings: for cell density / growth (FIG. 3F): extended culture, 17 days
# Source text: (§2) No change in culture cell density was seen after VPA addition compared to controls in genome modified mPB HSPCs (FIG. 6F).
# The presence of IL-6 was capable of enhancing the expression of CD49f with extended culture. […]
# Human mPB CD34+ cells [3] = assay: Cell viability by flow cytometry in the presence of propidium iodide
# Description: as §2, §1
# Human mPB CD34+ cells [4] = assay: Methylcellulose assays (colony forming units) on CD34+ cell cultures
# CD34+ cells = assay: CRISPR/Cas nuclease modification with VPA (as Example 3, CRISPR/Cas in place of ZFNs); settings: introduced before, concurrently and/or after the CRISPR/Cas nuclease systems
# Description: Experiments are conducted as described in Example 3 using CRISPR/Cas nucleases in place of ZFNs (e.g., specific for any gene such as IL2, HPRT, etc.), with and without donors.
# [5] = 14 days of in vitro differentiation
# [6] = VPA 1.25 mM added 1 day post thawing
# [7] = compared to controls after 14 days of in vitro differentiation
compound,measurement,setting,value
"CC(C)n1cnc2c(NCCc3ccc(O)cc3)nc(-c3csc4ccccc34)nc21 [SR1, StemRegenin 1]",CD90 expression (FIG. 3A),"Human mPB CD34+ cells [1]; VPA 1.25 mM, CC110 media",No effect
same,CD49f expression (FIG. 3C),Human mPB CD34+ cells [1],increased expression compared to both controls and VPA after 17 days in culture
same,CD133 expression (FIG. 3B),Human mPB CD34+ cells [1],decreased expression
same,CD34 expression compared to VPA (FIG. 3D),Human mPB CD34+ cells [1]; extended culture,higher expression
same,CD34 expression compared to controls (FIG. 3D),Human mPB CD34+ cells [1],retained elevated CD34 expression
same,cell density / growth (FIG. 3F),Human mPB CD34+ cells [2],slight growth advantage
same,cell viability (FIG. 3E),Human mPB CD34+ cells [3],no effect on cell viability
same,erythroid burst-forming units (BFU-E),Human mPB CD34+ cells [4]; [5],increased
same,granulocyte and megakaryocyte colony-forming units (CFU-GM),Human mPB CD34+ cells [4]; [5],increased
"NCCNCCNCCNCCN [TEPA, tetraethylenepentamine]","CD90 expression (percent of CD90+ cells, FIG. 2A)",Human mPB CD34+ cells [1]; VPA 1.25 mM,No effect
NC(=O)c1cccnc1 [nicotinamide],"CD90 expression (percent of CD90+ cells, FIG. 2A)",Human mPB CD34+ cells [1]; VPA 1.25 mM,No effect
"CCCCC(C)(C)[C@H](O)/C=C/[C@H]1[C@H](O)CC(=O)[C@@H]1C/C=C\CCCC(=O)O [dmPGE2, 16,16-dimethyl Prostaglandin E2]",CD90 expression (FIG. 3A),"Human mPB CD34+ cells [1]; VPA 1.25 mM, CC110 media",No effect
same,cell density / growth (FIG. 3F),Human mPB CD34+ cells [2],slight growth advantage
same,cell viability (FIG. 3E),"Human mPB CD34+ cells [3]; extended culture, 17 days",no effect on cell viability
"CCCC(CCC)C(=O)O [VPA, valproic acid]","level of CD90 expression, VPA added at day 1 vs day 4",Human mPB CD34+ cells [1],higher level
same,marker expression after VPA washout and genome modification,Human mPB CD34+ cells [1]; Example 3C,"retained high CD90, CD34, CD133 and CD49f expression"
same,CD49f expression compared to controls,"Human mPB CD34+ cells [1]; VPA 1.25 mM + LiCl 5 mM, 7 days",increased
same,time to peak of CD90 expression after addition (FIG. 2A),Human mPB CD34+ cells [1]; [6],≤ 2 days
same,time to peak of CD90 expression after addition (FIG. 3A),Human mPB CD34+ cells [1]; [6],≤ 2 days
same,CD90 expression (FIG. 3A),"Human mPB CD34+ cells [1]; VPA 1.25 mM, CC110 media",dramatically increased
same,"CD90 expression (percent of CD90+ cells, FIG. 2A)",Human mPB CD34+ cells [1]; VPA 1.25 mM,dramatically increased
same,fraction of CD34+CD133+CD90+CD49f+ cells,"Human mPB CD34+ cells [1]; VPA 1.25 mM, CC110 media, 3 days, controls 14.4%",85.9%
same,proportion of CD34+CD133+ cells,"Human mPB CD34+ cells [1]; VPA 1.25 mM, CC110 media, 3 days, controls 51.7%",93.1%
same,"level of CD133, CD90 and CD49f expression, VPA added at day 1 vs day 4",Human mPB CD34+ cells [1]; VPA + 5 mM Li,higher level
same,marker expression after VPA washout and genome modification,Human mPB CD34+ cells [1]; addition after extended culture (Example 3B),"retained high CD90, CD34, CD133 and CD49f expression"
same,CD49f expression (FIG. 3C),Human mPB CD34+ cells [1],increased CD49f expression for up to 15 days
same,CD133 expression (FIG. 3B),Human mPB CD34+ cells [1],increased
same,"fraction of cells unresponsive to VPA stimulation between days 1 and 4 post thawing (CD133, CD90 and CD49f expression)",Human mPB CD34+ cells [1]; day 1 vs day 4 addition,~15%
same,"fraction of cells unresponsive to VPA stimulation between days 1 and 4 post thawing, CD49f",Human mPB CD34+ cells [1]; day 1 vs day 4 addition,~15%
same,"fraction of cells unresponsive to VPA stimulation between days 1 and 4 post thawing, CD90",Human mPB CD34+ cells [1]; day 1 vs day 4 addition,~20%
same,"fraction of cells unresponsive to VPA stimulation between days 1 and 4 post thawing, CD133",Human mPB CD34+ cells [1]; day 1 vs day 4 addition,~15%
same,"CD34 expression, VPA added at day 1 vs day 4 post-thawing",Human mPB CD34+ cells [1]; extended culture,increased CD34 expression
same,CD34 expression compared to controls (FIG. 3D),Human mPB CD34+ cells [1],retained elevated CD34 expression
same,dose dependence of CD49f expression,Human mPB CD34+ cells [1]; increasing VPA,No significant dose dependence
same,dose dependence of CD90 expression,Human mPB CD34+ cells [1]; increasing VPA,dose dependence
same,dose dependence of CD34 expression,"Human mPB CD34+ cells [1]; increasing VPA doses (1.25 mM, 2.5 mM)",slight dose dependence
same,"cell growth, VPA at day 4 compared to day 1",Human mPB CD34+ cells [2],cell growth advantage
same,cell growth potential at 2.5 mM VPA,Human mPB CD34+ cells [2]; 2.5 mM VPA,decreased cell growth potential
same,initial proliferative capacity,"Human mPB CD34+ cells [2]; Example 6, VPA administration",slightly decreased proliferative capacity
same,proliferative capacity after 7 days in culture,"Human mPB CD34+ cells [2]; Example 6, VPA administration",recovered
same,culture cell density (FIG. 6F),"Human mPB CD34+ cells [2]; after VPA addition compared to controls, genome modified mPB HSPCs",No change
same,cell density / growth (FIG. 3F),Human mPB CD34+ cells [2],slightly decreased proliferative capacity
same,cell growth at lower doses of VPA,Human mPB CD34+ cells [2]; lower doses than 2.5 mM,did not affect cell growth as substantially
same,CRISPR/Cas induced nuclease modification,CD34+ cells,enhances
same,cell viability (FIG. 3E),Human mPB CD34+ cells [3],no loss of cell viability
same,cell viability after VPA addition compared to controls (FIG. 6E),Human mPB CD34+ cells [3],no increased loss of cell viability
same,overall cell viability with VPA,Human mPB CD34+ cells [3],slightly lower viability
same,recovery of cell viability following VPA administration,Human mPB CD34+ cells [3],initial delay in recovery
same,"viability after VPA addition, before genome modification (FIG. 5E)",Human mPB CD34+ cells [3],no decrease in viability
same,viability after genome modification (FIG. 5E),Human mPB CD34+ cells [3],significant viability loss
same,viability after genome modification (FIG. 6E),Human mPB CD34+ cells [3],significant loss of viability
same,myeloid or erythroid differentiation capacity (FIG. 2C),Human mPB CD34+ cells [4]; [7],no significant difference
same,myeloid or erythroid differentiation capacity (FIGS. 3G and 3H),Human mPB CD34+ cells [4]; [7],no significant difference
IL-6: cytokine added to CC110 media at 100 ng/mL,VPA-increased HSC multipotency marker expression in the presence of IL-6,Human mPB CD34+ cells [1]; 100 ng/mL IL-6,enhanced
same,expression of CD49f in the presence of IL-6,"Human mPB CD34+ cells [1]; 100 ng/mL IL-6, extended culture with VPA+Li",enhancing
same,overall cell density with or without IL-6,"Human mPB CD34+ cells [2]; 100 ng/mL IL-6, VPA+Li cultures",higher overall cell density in the absence of IL-6
